Measured values reported in PubChem BioAssay (NCI).
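Step 1: Grow cells in 96-well plates. Step 2: Expose to compound for 48 hours at 5 concentrations. Step 3: Interpolate endpoints linearly; if unreached, use highest concentration. At the GI50, growth is halved. TGI: total growth inhibition.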

How the values were obtained:
Assay in all cases: NCI anticancer screen, dose series, 48 h
MDA-MB-231 breast = test system: MDA-MB-231 breast
SK-MEL-28 melanoma = test system: SK-MEL-28 melanoma
SW-620 colon = test system: SW-620 colon
NCI-H226 lung = test system: NCI-H226 lung
RPMI-8226 leukemia = test system: RPMI-8226 leukemia
HCT-15 colon = test system: HCT-15 colon
K-562 leukemia = test system: K-562 leukemia
HL-60(TB) leukemia = test system: HL-60(TB) leukemia
HT29 colon = test system: HT29 colon
MOLT-4 leukemia = test system: MOLT-4 leukemia
TK-10 renal = test system: TK-10 renal
IGROV1 ovarian = test system: IGROV1 ovarian
CCRF-CEM leukemia = test system: CCRF-CEM leukemia
EKVX NSCLC = test system: EKVX NSCLC
NCI-H522 lung = test system: NCI-H522 lung
SK-OV-3 ovarian = test system: SK-OV-3 ovarian
LOX IMVI melanoma = test system: LOX IMVI melanoma
UACC-257 melanoma = test system: UACC-257 melanoma
HOP-62 NSCLC = test system: HOP-62 NSCLC
786-0 renal = test system: 786-0 renal
NCI/ADR-RES ovarian = test system: NCI/ADR-RES ovarian
SN12C renal = test system: SN12C renal
SR leukemia = test system: SR leukemia
CAKI-1 renal = test system: CAKI-1 renal
SF-295 CNS = test system: SF-295 CNS
PC-3 prostate = test system: PC-3 prostate
SNB-19 CNS = test system: SNB-19 CNS
MDA-MB-435 = test system: MDA-MB-435
RXF 393 renal = test system: RXF 393 renal
A549 NSCLC = test system: A549 NSCLC
OVCAR-3 ovarian = test system: OVCAR-3 ovarian
ACHN renal = test system: ACHN renal
OVCAR-4 ovarian = test system: OVCAR-4 ovarian
SF-268 CNS = test system: SF-268 CNS
KM12 colon = test system: KM12 colon
SK-MEL-2 melanoma = test system: SK-MEL-2 melanoma
HS 578T breast = test system: HS 578T breast
DU-145 prostate = test system: DU-145 prostate
U251 CNS = test system: U251 CNS
A498 renal = test system: A498 renal
HCT-116 colon = test system: HCT-116 colon
HOP-92 NSCLC = test system: HOP-92 NSCLC
T-47D breast = test system: T-47D breast
NCI-H23 lung = test system: NCI-H23 lung
BT-549 breast = test system: BT-549 breast
SK-MEL-5 melanoma = test system: SK-MEL-5 melanoma
UO-31 renal = test system: UO-31 renal
SF-539 CNS = test system: SF-539 CNS
OVCAR-5 ovarian = test system: OVCAR-5 ovarian
NCI-H460 lung = test system: NCI-H460 lung
MALME-3M melanoma = test system: MALME-3M melanoma
COLO 205 colon = test system: COLO 205 colon
SNB-75 CNS = test system: SNB-75 CNS
OVCAR-8 ovarian = test system: OVCAR-8 ovarian
M14 melanoma = test system: M14 melanoma
UACC-62 melanoma = test system: UACC-62 melanoma
HCC-2998 colon = test system: HCC-2998 colon
MCF7 breast = test system: MCF7 breast

## COc1cc(/C=C\[N+](=O)[O-])ccc1O
MDA-MB-231 breast
  GI50: 2.6 µM
  TGI: 8.94 µM
SK-MEL-28 melanoma
  GI50: 1.95 µM
  TGI: 4.59 µM
SW-620 colon
  GI50: 2.1 µM
  TGI: 5.02 µM
NCI-H226 lung
  GI50: 4.34 µM
  TGI: 16.6 µM
RPMI-8226 leukemia
  GI50: 2.2 µM
  TGI: 6.11 µM
HCT-15 colon
  GI50: 1.85 µM
  TGI: 6.03 µM
K-562 leukemia
  GI50: 3.17 µM
  TGI: 10.8 µM
HL-60(TB) leukemia
  GI50: 2.39 µM
  TGI: 6.31 µM
HT29 colon
  GI50: 2.98 µM
  TGI: 10.6 µM
MOLT-4 leukemia
  GI50: 2.76 µM
  TGI: 7.23 µM
TK-10 renal
  GI50: 1.72 µM
  TGI: 3.41 µM
IGROV1 ovarian
  GI50: 2.61 µM
  TGI: 6.97 µM
CCRF-CEM leukemia
  GI50: 2.25 µM
  TGI: 7.23 µM
EKVX NSCLC
  GI50: 11.8 µM
  TGI: 24.6 µM
NCI-H522 lung
  GI50: 1.3 µM
  TGI: 3.02 µM
SK-OV-3 ovarian
  GI50: 12.7 µM
  TGI: 25.9 µM
LOX IMVI melanoma
  GI50: 1.74 µM
  TGI: 3.39 µM
UACC-257 melanoma
  GI50: 2.42 µM
  TGI: 6.77 µM
HOP-62 NSCLC
  GI50: 3.21 µM
  TGI: 13.8 µM
786-0 renal
  GI50: 1.81 µM
  TGI: 3.94 µM
NCI/ADR-RES ovarian
  GI50: 2.84 µM
  TGI: 7.95 µM
SN12C renal
  GI50: 2.49 µM
  TGI: 7.74 µM
SR leukemia
  GI50: 0.987 µM
  TGI: 38.5 µM
CAKI-1 renal
  GI50: 2.85 µM
  TGI: 10.9 µM
SF-295 CNS
  GI50: 17.2 µM
  TGI: 31.5 µM
PC-3 prostate
  GI50: 8.63 µM
  TGI: 21.6 µM
SNB-19 CNS
  GI50: 4.92 µM
  TGI: 18 µM
MDA-MB-435
  GI50: 2.16 µM
  TGI: 5.98 µM
RXF 393 renal
  GI50: 1.91 µM
  TGI: 3.48 µM
A549 NSCLC
  GI50: 3.34 µM
  TGI: 12.7 µM
OVCAR-3 ovarian
  GI50: 1.9 µM
  TGI: 3.36 µM
ACHN renal
  GI50: 2.36 µM
  TGI: 6.01 µM
OVCAR-4 ovarian
  GI50: 3.86 µM
  TGI: 14.1 µM
SF-268 CNS
  GI50: 3.44 µM
  TGI: 12.8 µM
KM12 colon
  GI50: 4.93 µM
  TGI: 17.3 µM
SK-MEL-2 melanoma
  GI50: 2.8 µM
  TGI: 10.4 µM
HS 578T breast
  GI50: 4.71 µM
  TGI: 28.8 µM
DU-145 prostate
  GI50: 2.41 µM
  TGI: 5.93 µM
U251 CNS
  GI50: 2.99 µM
  TGI: 10.6 µM
A498 renal
  GI50: 12.3 µM
  TGI: 24.8 µM
HCT-116 colon
  GI50: 1.83 µM
  TGI: 3.43 µM
HOP-92 NSCLC
  GI50: 1.26 µM
  TGI: 3.73 µM
T-47D breast
  GI50: 2.33 µM
  TGI: 9.95 µM
NCI-H23 lung
  GI50: 3.34 µM
  TGI: 11.4 µM
BT-549 breast
  GI50: 2.39 µM
  TGI: 6.51 µM
SK-MEL-5 melanoma
  GI50: 1.77 µM
  TGI: 3.24 µM
UO-31 renal
  GI50: 1.48 µM
  TGI: 3.25 µM
SF-539 CNS
  GI50: 2.03 µM
  TGI: 5.18 µM
OVCAR-5 ovarian
  GI50: 3.94 µM
  TGI: 14.5 µM
NCI-H460 lung
  GI50: 3.51 µM
  TGI: 13.7 µM
MALME-3M melanoma
  GI50: 1.91 µM
  TGI: 4.91 µM
COLO 205 colon
  GI50: 2.36 µM
  TGI: 5.74 µM
SNB-75 CNS
  GI50: 3.35 µM
  TGI: 17.2 µM
OVCAR-8 ovarian
  GI50: 3.21 µM
  TGI: 12.1 µM
M14 melanoma
  GI50: 2.05 µM
  TGI: 4.98 µM
UACC-62 melanoma
  GI50: 1.78 µM
  TGI: 3.99 µM
HCC-2998 colon
  GI50: 1.98 µM
  TGI: 3.63 µM
MCF7 breast
  GI50: 1.63 µM
  TGI: 4.28 µM
